This is an account of results in US20250179059A1 (The Regents of the University of California, priority 2021, published 2025).

The test system of experiment [1] is human SKM-1 acute myeloid leukemia cells. The experiment in a line: SKM-1 antiproliferation cell-based assay (ATPlite). A digest of the protocol:
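Log-phase cells in RPMI 1640/15% FBS were seeded at 34722 cells/mL and exposed for 4 days to nine-concentration DMSO serial dilutions in triplicate. Viability was read as ATP luminescence (ATPlite 1step), and IC50 values came from variable-slope non-linear regression.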
For orientation: Cellular ATP, detected with luciferase, serves as a proxy for viable cell number.

Experiment [2] has as its target T1, human BRD4 bromodomain II (Homo sapiens, UniProt O60885).
T1 construct: human BRD4 bromodomain II [based on Genbank NM_058243, residues 349-460]; host or cells: E. coli
The experiment is described as follows: Bromodomain binding assay (AlphaScreen), BRD4 BDII. A digest of the protocol: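 Tagged BRD4 BDI or BDII constructs, expressed in E. coli, competed against a K5/K8/K12/K16-acetylated biotin-H4 peptide. Proximity signal between bead pairs after room-temperature incubations gave concentration-response curves, from which IC50 was derived.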

Where [3] appears, read: Homo sapiens, SKM-1, 96 h, SKM-1 antiproliferation assay, 4 days, Table C2.
[4] abbreviates: AlphaScreen assay, Table C2, read-out: BRD4 BDII IC50.
Setting [5] is: BRD4 BDII AlphaScreen assay, read-out: BRD4 BD2 IC50.

Read-outs that look alike come from different tables or passages of the source.

In experiment [1] (setting [3]), `C[C@@H]1CN(c2cc(-c3cc(F)cc(-c4ccc(-n5ccn(C)c5=O)c(Cl)c4)c3O)ccn2)CCO1` [Example 673, (R)-1-(3-chloro-5′-fluoro-2′-hydroxy-3′-(2-(2-methylmorpholino)pyridin-4-yl)-[1,1′-biphenyl]-4-yl)-3-methyl-1H-imidazol-2(3H)-one] showed a GI50 of 30 to 300 nM. Besides, the IC50 in experiment [2] (setting [4]) fell in the range of 0.01 to 1 nM.

`Cn1ccn(-c2ccc(-c3cc(F)cc(-c4cccc(C#CC(C)(C)O)c4)c3O)cc2Cl)c1=O` [Example 772, 1-(3-chloro-5′-fluoro-2′-hydroxy-3″-(3-hydroxy-3-methylbut-1-yn-1-yl)-[1,1′:3′,1″-terphenyl]-4-yl)-3-methyl-1H-imidazol-2(3H)-one]: the GI50 in experiment [1] (setting [3]) is 300 to 3000 nM. Further, in experiment [2] (setting [4]), the IC50 is 10 to 100 nM.

On to `CCc1cc(-c2cccc(-c3ccc(N4CCN(C)C4=O)c(Cl)c3)c2O)cc(N2CCNCC2)n1` [Example 374, 1-(3-chloro-3′-(2-ethyl-6-(piperazin-1-yl)pyridin-4-yl)-2′-hydroxy-[1,1′-biphenyl]-4-yl)-3-methylimidazolidin-2-one], for which, in experiment [1] (setting [3]), the GI50 was in the range of 300 to 3000 nM. Besides, in experiment [2] (setting [4]), the IC50 fell in the range of 1 to 10 nM.

The compound `CN1CCN(c2ccc(-c3cc(OC(F)(F)F)cc(-c4ccnc(N5CCNCC5)c4)c3O)cc2Cl)C1=O` [Example 309, l-(3-chloro-2′-hydroxy-3′-(2-(piperazin-l-yl)pyridin-4-yl)-5′-(trifluoromethoxy)-[1,1′-biphenyl]-4-yl)-3-methylimidazolidin-2-one] came in with a GI50 in experiment [1] (setting [3]) not below 3000 nM. Besides, the IC50 in experiment [2] (setting [4]) fell in the range of 10 to 100 nM.

For the compound `CCC[C@@H]1CN(c2cc(-c3cc(F)cc(-c4ccc(-n5ccn(C)c5=O)c(Cl)c4)c3O)cc3[nH]ncc23)CCN1` [Example 592, (R)-1-(3-chloro-5′-fluoro-2′-hydroxy-3′-(4-(3-propylpiperazin-1-yl)-1H-indazol-6-yl)-[1,1′-biphenyl]-4-yl)-3-methyl-1H-imidazol-2(3H)-one], in experiment [1] (setting [3]), the GI50 fell in the range of 0.3 to 30 nM. Besides, in experiment [2] (setting [4]), the IC50 lay in the range of 1 to 10 nM.

`CN1CCN(c2ccc(-c3cc(F)cc(-c4cnc(-c5cn[nH]c5)c(N5CCNCC5)c4)c3O)cc2Cl)C1=O` [Example 390, 1-(3-chloro-5′-fluoro-2′-hydroxy-3′-(5-(piperazin-1-yl)-6-(1H-pyrazol-4-yl)pyridin-3-yl)-[1,1′-biphenyl]-4-yl)-3-methylimidazolidin-2-one] yielded a concentration for 50% growth inhibition (GI50) in experiment [1] (setting [3]) of 300 to 3000 nM. Further, in experiment [2] (setting [4]), the IC50 lay in the range of 1 to 10 nM.

Take `Cn1ccn(-c2ccc(-c3cc(F)cc(-c4ccnc(N5CC[C@H](N6CCOCC6)C5)c4)c3O)cc2Cl)c1=O` [Example 635, (S)-1-(3-chloro-5′-fluoro-2′-hydroxy-3′-(2-(3-morpholinopyrrolidin-1-yl)pyridin-4-yl)-[1,1′-biphenyl]-4-yl)-3-methyl-1H-imidazol-2(3H)-one]: the GI50 in experiment [1] (setting [3]) was in the range of 0.3 to 30 nM. Also, the IC50 in experiment [2] (setting [4]) is 1 to 10 nM.

With `C[C@@H]1CN(c2cc(-c3cc(F)cc(-c4ccc(-n5ccn(C)c5=O)c(Cl)c4)c3N)ccn2)CCN1` [Example 542, (R)-1-(2′-amino-3-chloro-5′-fluoro-3′-(2-(3-methylpiperazin-1-yl)pyridin-4-yl)-[1,1′-biphenyl]-4-yl)-3-methyl-1H-imidazol-2(3H)-one], the GI50 in experiment [1] (setting [3]) lay within 30 to 300 nM. Also, the IC50 in experiment [2] (setting [4]) fell in the range of 1 to 10 nM.

For the compound `O=C1NCCCN1c1ccc(-c2cc(F)cc(-c3ccnc(N4CCNCC4)c3)c2O)cc1F` [Example 278, 1-(3,5′-difluoro-2′-hydroxy-3′-(2-(piperazin-1-yl)pyridin-4-yl)-[1,1′-biphenyl]-4-yl)tetrahydropyrimidin-2(1H)-one], in experiment [1] (setting [3]), the GI50 fell in the range of 300 to 3000 nM. The IC50 in experiment [2] (setting [4]) was 10 to 100 nM.

Turning to `CN1CCN(c2ccc(-c3cc(C#N)cc(-c4ccnc(N5CCNCC5)c4)c3O)cc2Cl)C1=O` [Example 314, 3′-chloro-6-hydroxy-4′-(3-methyl-2-oxoimidazolidin-1-yl)-5-(2-(piperazin-1-yl)pyridin-4-yl)-[1,1′-biphenyl]-3-carbonitrile], the GI50 in experiment [1] (setting [3]) was not below 3000 nM. The IC50 in experiment [2] (setting [4]) was more than 100 nM.

In experiment [1] (setting [3]), `CC(=O)Nc1ccc(-c2cccc(-c3cc(OC4CCC(N)CC4)nc(N4CCNCC4)c3)c2O)cc1F` (stereo not drawn) [Example 375, N-(3′-(2-((4-aminocyclohexyl)oxy)-6-(piperazin-1-yl)pyridin-4-yl)-3-fluoro-2′-hydroxy-[1,1′-biphenyl]-4-yl)acetamide] displayed a GI50 of 300 to 3000 nM. Besides, the IC50 in experiment [2] (setting [4]) was in the range of 10 to 100 nM.

`O=C1CCCCN1c1ccc(-c2cc(F)cc(-c3ccnc(N4CCNCC4)c3)c2O)cc1Cl` [Example 281, 1-(3-chloro-5′-fluoro-2′-hydroxy-3′-(2-(piperazin-1-yl)pyridin-4-yl)-[1,1′-biphenyl]-4-yl)piperidin-2-one] registered a GI50 in experiment [1] (setting [3]) of 300 to 3000 nM. For the same compound, the IC50 in experiment [2] (setting [4]) lay within 10 to 100 nM.

Compound `Cn1ccn(-c2ccc(-c3cc(F)cc(-c4cccc(N5CCN(C(C)(C)C)CC5=O)c4)c3O)cc2Cl)c1=O` [Example 901] registered a GI50 in experiment [1] (Homo sapiens, SKM-1, SKM-1 antiproliferation assay) of 30 to 300 nM. For the same compound, in experiment [2] (setting [5]), the IC50 is 0.01 to 1 nM.

In experiment [1] (setting [3]), `CN1CCN(c2ccc(-c3cccc(-c4cncc(N5CCCC(N)C5)c4)c3O)cc2Cl)C1=O` (stereo not drawn) [Example 325, 1-(3′-(5-(3-aminopiperidin-1-yl)pyridin-3-yl)-3-chloro-2′-hydroxy-[1,1′-biphenyl]-4-yl)-3-methylimidazolidin-2-one] had a GI50 of 30 to 300 nM. Besides, the IC50 in experiment [2] (setting [4]) was 1 to 10 nM.

As to `CN1CCN(c2ccc(-c3cc(C(F)(F)F)cc(-c4ccnc(N5CCNCC5)c4)c3O)cc2Cl)C1=O` [Example 332, 1-(3-chloro-2′-hydroxy-3′-(2-(piperazin-1-yl)pyridin-4-yl)-5′-(trifluoromethyl)-[1,1′-biphenyl]-4-yl)-3-methylimidazolidin-2-one], the GI50 in experiment [1] (setting [3]) is not below 3000 nM. Besides, the IC50 in experiment [2] (setting [4]) was in the range of 10 to 100 nM.

As to `CC(=O)Nc1ccc(-c2cccc(-c3ccnc(N4CC(C)NC(C)C4)c3)c2O)cc1F` (stereo not drawn) [Example 279, N-(3′-(2-(3,5-dimethylpiperazin-1-yl)pyridin-4-yl)-3-fluoro-2′-hydroxy-[1,1′-biphenyl]-4-yl)acetamide], the concentration for 50% growth inhibition (GI50) in experiment [1] (setting [3]) lay in the range of 300 to 3000 nM. The IC50 in experiment [2] (setting [4]) fell in the range of 1 to 10 nM.

In experiment [1] (setting [3]), `CC1CCN(c2ccc(-c3cccc(-c4ccnc(N5CCNCC5)c4)c3O)cc2Cl)C1=O` (stereo not drawn) [Example 328, 1-(3-chloro-2′-hydroxy-3′-(2-(piperazin-1-yl)pyridin-4-yl)-[1,1′-biphenyl]-4-yl)-3-methylpyrrolidin-2-one] yielded a GI50 of 300 to 3000 nM. Moreover, the half-inhibitory concentration (IC50) in experiment [2] (setting [4]) lay in the range of 1 to 10 nM.

`CN1CCN(c2ccc(-c3cc(F)cc(-c4ccnc(N5CCNC5=O)c4)c3O)cc2Cl)C1=O` [Example 354, 1-(3-chloro-5′-fluoro-2′-hydroxy-3′-(2-(2-oxoimidazolidin-1-yl)pyridin-4-yl)-[1,1′-biphenyl]-4-yl)-3-methylimidazolidin-2-one] yielded a GI50 in experiment [1] (setting [3]) not below 3000 nM. The IC50 in experiment [2] (setting [4]) was more than 100 nM.

Regarding `Cn1ccn(-c2ccc(-c3cc(F)cc(-c4ccnc(N5C[C@@H](O)[C@H](O)C5)c4)c3O)cc2Cl)c1=O` [Example 726, 1-(3-chloro-3′-(2-((3R,4R)-3,4-dihydroxypyrrolidin-1-yl)pyridin-4-yl)-5′-fluoro-2′-hydroxy-[1,1′-biphenyl]-4-yl)-3-methyl-1H-imidazol-2(3H)-one], in experiment [1] (setting [3]), the GI50 lay within 0.3 to 30 nM. Moreover, the IC50 in experiment [2] (setting [4]) was 0.01 to 1 nM.

As to `Cc1cc(-c2ccc(-n3ccn(C)c3=O)c(Cl)c2)c(O)c(-c2cc(N3CCNCC3)c3cc[nH]c3c2)c1` [Example 557, 1-(3-chloro-2′-hydroxy-5′-methyl-3′-(4-(piperazin-1-yl)-1H-indol-6-yl)-[1,1′-biphenyl]-4-yl)-3-methyl-1H-imidazol-2(3H)-one], the GI50 in experiment [1] (setting [3]) was 0.3 to 30 nM. Besides, in experiment [2] (setting [4]), the IC50 fell in the range of 1 to 10 nM.

`CN[C@H]1CCN(c2cc(-c3cc(F)cc(-c4ccc(-n5ccn(C)c5=O)c(Cl)c4)c3O)cc(NC(C)=O)n2)C1` [Example 519, (S)-N-(4-(3′-chloro-5-fluoro-2-hydroxy-4′-(3-methyl-2-oxo-2,3-dihydro-1H-imidazol-1-yl)-[1,1′-biphenyl]-3-yl)-6-(3-(methylamino)pyrrolidin-1-yl)pyridin-2-yl)acetamide] yielded a GI50 in experiment [1] (setting [3]) of 0.3 to 30 nM. Moreover, the IC50 in experiment [2] (setting [4]) lay in the range of 1 to 10 nM.

Regarding `COCCCN1CCN(c2cc(-c3cc(F)cc(-c4ccc(-n5ccn(C)c5=O)c(Cl)c4)c3O)ccn2)CC1` [Example 633, 1-(3-chloro-5′-fluoro-2′-hydroxy-3′-(2-(4-(3-methoxypropyl)piperazin-1-yl)pyridin-4-yl)-[1,1′-biphenyl]-4-yl)-3-methyl-1H-imidazol-2(3H)-one], in experiment [1] (setting [3]), the GI50 fell in the range of 0.3 to 30 nM. Also, the IC50 in experiment [2] (setting [4]) fell in the range of 0.01 to 1 nM.

`CC(C)c1cc(-c2cc(F)cc(-c3cccc(N4CCN(C(C)(C)C)CC4)c3)c2O)cc(Cl)c1-n1ccn(C)c1=O` [Example 935, (S)-1-(3″-(4-(tert-butyl)piperazin-1-yl)-3-chloro-5′-fluoro-2′-hydroxy-5-isopropyl-[1,1′:3′,1″-terphenyl]-4-yl)-3-methyl-1,3-dihydro-2H-imidazol-2-one] yielded a GI50 in experiment [1] (SKM-1 antiproliferation assay) of 300 to 3000 nM. Besides, in experiment [2] (setting [5]), the IC50 is more than 100 nM.

Compound `CC(=O)Nc1ccc(-c2cccc(-c3ccc(C#N)c(N4CCNCC4)c3)c2O)cc1F` [Example 236, N-(4″-cyano-3-fluoro-2′-hydroxy-3″-(piperazin-1-yl)-[1,1′:3′,1″-terphenyl]-4-yl)acetamide] yielded a GI50 in experiment [1] (setting [3]) of 30 to 300 nM. Moreover, the IC50 in experiment [2] (setting [4]) lay in the range of 1 to 10 nM.

For orientation: GI50 means the concentration that inhibits growth by half. One may read the IC50 as the midpoint of a concentration-inhibition curve.
